Patent US7141570B2, “N-aryl-2-oxazolidinone-5-carboxamides and their derivatives” (Pharmacia & Upjohn Company, priority 2002, dated 2006)

melting point	Structure (SMILES)
98 °C	CCC(=S)NC[C@H]1CN(c2ccc(N3CCN(C(=O)COc4ccc(CN(CC)CC)cc4)CC3)c(F)c2)C(=O)O1 [Example 1, N-[((5S)-3-{4-[4-({4-[(Diethylamino)methyl]phenoxy}acetyl)piperazin-1-yl]-3-fluorophenyl}-2-oxo-1,3-oxazolidin-5-yl)methyl]propanethioamide]
163 to 164 °C	CCC(=S)NC[C@H]1CN(c2ccc(N3CCN(C(=O)COc4ccc(CN(C)C)cc4)CC3)c(F)c2)C(=O)O1 [Example 4, N-[((5S)-3{4-[4-({4-[(Dimethylamino)methyl]phenoxy}acetyl)piperazin-1-yl]-3-fluorophenyl}-2-oxo-1,3-oxazolidin-5-yl)methyl]propanethioamide]
159 to 160 °C	CCC(=S)NC[C@H]1CN(c2ccc(N3CCN(C(=O)COc4ccc(CN5CCOCC5)cc4)CC3)c(F)c2)C(=O)O1 [Example 7, N-({(5S)-3-[3-Fluoro-4-(4-{[4-(morpholin-4-ylmethyl)phenoxy]acetyl}piperazin-1-yl)phenyl]-2-oxo-1,3-oxazolidin-5-yl}methyl)propanethioamide]
174 to 175 °C	CN(C)Cc1ccc(C(=O)CCC(=O)N2CCN(c3ccc(N4C[C@H](CNC(=S)C5CC5)OC4=O)cc3F)CC2)cc1 [Example 14, N-[((5S)-3-{4-[4-(4-{4-[(Dimethylamino)methyl]phenyl}-4-oxobutanoyl)-1-piperazinyl]-3-fluorophenyl}-2-oxo-1,3-oxazolidin-5-yl)methyl]cyclopropanecarbothioamide]
190 to 192 °C	CC(=O)NC[C@H]1CN(c2ccc(N3CCN(C(=O)CCC(=O)c4ccc(CN(C)C)cc4)CC3)c(F)c2)C(=O)O1 [Example 15, N-[((5S)-3-{4-[4-(4-{4-[(Dimethylamino)methyl]phenyl}-4-oxobutanoyl)-1-piperazinyl]-3-fluorophenyl}-2-oxo-1,3-oxazolidin-5-yl)methyl]acetamide]
160 °C	CCC(=S)NC[C@H]1CN(c2ccc(N3CCN(C(=O)CCC(=O)c4ccc(CN5CCOCC5)cc4)CC3)c(F)c2)C(=O)O1 [Example 16, N-({(5S)-3-[3-Fluoro-4-(4-{4-[4-(4-morpholinylmethyl)phenyl]-4-oxobutanoyl}-1-piperazinyl)phenyl]-2-oxo-1,3-oxazolidin-5-yl}methyl)propanethioamide]
160 to 160.5 °C	CC(=O)NC[C@H]1CN(c2ccc(N3CCN(C(=O)CCC(=O)c4ccc(CNC(=O)CN(C)C)cc4)CC3)c(F)c2)C(=O)O1 [Example 22, N^1-(4-{4-[4-(4-{(5S)-5-[(Acetylamino)methyl]-2-oxo-1,3-oxazolidin-3-yl}-2-fluorophenyl)piperazin-1-yl]-4-oxobutanoyl}benzyl)-N^2,N^2-dimethylglycinamide]
164 to 165 °C	COc1ccc(CCCC(=O)N2CCN(c3ccc(N4C[C@H](CNC(C)=O)OC4=O)cc3F)CC2)cc1 [Example 41, N-{[(5S)-3-(3-Fluoro-4-{4-[4-(4-methoxyphenyl)butanoyl]piperazine-1-yl}phenyl)-2-oxo-1,3-oxazolidin-5-yl]methyl}acetamide]
119 to 120 °C (dec.)	CC(=O)NC[C@H]1CN(c2ccc(N3CCN(C(=O)CCCc4ccc(O)cc4)CC3)c(F)c2)C(=O)O1 [Example 42, N-{[(5S)-3-(3-Fluoro-4-{4-[4-(4-hydroxyphenyl)butanoyl]piperazin-1-yl}phenyl)-2-oxo-1,3-oxazolidin-5-yl]methyl}acetamide]
197 to 198 °C	CC(=O)NC[C@H]1CN(c2ccc(N3CCN(C(=O)CCC(=O)c4ccc(Br)cc4)CC3)c(F)c2)C(=O)O1 [Example 44, N-{[(5S)-3-(4-{4-[4-(4-Bromophenyl)-4-oxobutanoyl]-1-piperazinyl}-3-fluorophenyl)-2-oxo-1,3-oxazolidin-5-yl]methyl}acetamide]
208 to 209 °C	CC(=O)NC[C@H]1CN(c2ccc(N3CCN(C(=O)CCC(=O)c4ccc(Cl)cc4)CC3)c(F)c2)C(=O)O1 [Example 49, N-{[(5S)-3-(4-{4-[4-(4-Chlorophenyl)-4-oxobutanoyl]-1-piperazinyl}-3-fluorophenyl)-2-oxo-1,3-oxazolidin-5-yl]methyl}acetamide]
215 to 216 °C (dec.)	CC(=S)NC[C@H]1CN(c2ccc(N3CCN(C(=O)CCC(=O)c4ccc(Cl)cc4)CC3)c(F)c2)C(=O)O1 [Example 50, N-{[(5S)-3-(4-{4-[4-(4-chlorophenyl)-4-oxobutanoyl]-1-piperazinyl}-3-fluorophenyl)-2-oxo-1,3-oxazolidin-5-yl]methyl}ethanethioamide]
199 to 200 °C (dec.)	CC(=O)NC[C@H]1CN(c2ccc(N3CCN(C(=O)CCCc4ccc(NC(=O)CN)cc4)CC3)c(F)c2)C(=O)O1 [Example 60, N-(4-{4-[4-(4-{(5S)-5-[(Acetylamino)methyl]-2-oxo-1,3-oxazolidin-3-yl}-2-fluorophenyl)-1-piperazinyl]-4-oxobutyl}phenyl)-2-aminoacetamide]
241 to 243 °C (dec.)	CC(=O)NC[C@H]1CN(c2ccc(N3CCN(C(=O)CN4C(=O)c5ccc(N)cc5C4=O)CC3)c(F)c2)C(=O)O1 [Example 70, N-{[(5S)-3-(4-{4-[(5-Amino-1,3-dioxo-1,3-dihydro-2H-isoindol-2-yl)acetyl]piperazin-1-yl}-3-fluorophenyl)-2-oxo-1,3-oxazolidin-5-yl]methyl}acetamide]
